Assay results taken from BindingDB's records for patent US9145380 (Astrazeneca, 2015).
pIC50: −log10 of the molar value.

Biological target: T1, Prostaglandin E synthase (Homo sapiens, UniProt O14684)
T1 sequence (O14684 whole entry): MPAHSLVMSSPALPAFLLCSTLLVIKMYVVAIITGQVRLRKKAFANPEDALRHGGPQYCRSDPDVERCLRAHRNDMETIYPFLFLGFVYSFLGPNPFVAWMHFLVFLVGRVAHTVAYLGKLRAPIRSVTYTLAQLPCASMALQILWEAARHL
Experiment: Biochemical Assay
Settings: pH 6.8
Protocol: A solution of test compound was added to a diluted microsome preparation containing human mPGES-1 and pre-incubated for 15 minutes in potassium phosphate buffer pH 6.8 with cofactor glutathione (GSH). Corresponding solutions without test compound were used as positive controls, and corresponding solutions without test compound and without microsomes were used as negative controls. The enzymatic reaction was then started by addition of the substrate PGH2 in an organic solution (dry acetonitrile).The typical reaction conditions of the enzymatic reaction were thus: Test compound: ranging from 60 uM to 0.002 uM, or zero in positive and negative controls; potassium phosphate buffer pH 6.8: 50 mM; GSH: 2.5 mM; mPGES-1-containing microsomes: 2 ug/mL (sample and positive controls) or 0 ug/mL (negative control); PGH2: 10.8 uM; Acetonitrile: 7.7% (v/v); DMSO: 0.6% (v/v). The reaction was stopped after one minute by adding an acidic solution (pH 1.9) of ferric chloride.

Work on COc1ccc(Br)cc1/C=C/S(=O)(=O)Nc1ccc(C#CC(C)(C)O)cc1S(N)(=O)=O [US9145380, 179] yielded a pIC50 of 5.21.
